According to patent US10787452B2 (Vertex Pharmaceuticals Incorporated, priority 2012, dated 2020):

System: HCT116 colorectal cancer cells
Experiment: Cisplatin sensitization assay (96 h cell viability MTS);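 also: compound concentration needed to lower the Cisplatin-alone IC50 by a set fold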
Format: cell-based
Conditions: 96 h MTS, compound plus Cisplatin
Procedure, shortened: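 Full-matrix combination: compound × cisplatin, 2-fold dilutions from 10 μM top final, co-added; 96 h, 37° C, 5% CO2; MTS read-out after 1 h.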

Structure (SMILES)	Cisplatin Sensitization Assay
CCN1CCCC1C(=O)N1CCN(c2c(F)cncc2NC(=O)c2c(N)nn3cc(F)cnc23)CC1 (stereo not shown) [I-N-185, 2-amino-N-(4-(4-(1-ethylpyrrolidine-2-carbonyl)piperazin-1-yl)-5-fluoropyridin-3-yl)-6-fluoropyrazolo[1,5-a]pyrimidine-3-carboxamide]	++ (Compounds with a Cisplatin sensitization value >0.02 μM but <0.2 μM are marked with “++.”)
Nc1nn2cc(F)cnc2c1C(=O)Nc1cncc(F)c1N1CCC(C(=O)N2CCNC3(CC3)C2)CC1 [I-G-28, N-(4-(4-(4,7-diazaspiro[2.5]octane-7-carbonyl)piperidin-1-yl)-5-fluoropyridin-3-yl)-2-amino-6-fluoropyrazolo[1,5-a]pyrimidine-3-carboxamide]	+++ (Compounds with a Cisplatin sensitization value of <0.02 μM are marked with “+++.”)
Nc1nn2cc(F)cnc2c1C(=O)Nc1cnccc1N1CCN2CCOC[C@@H]2C1 [I-N-115, (S)-2-amino-6-fluoro-N-(4-(hexahydropyrazino[2,1-c][1,4]oxazin-8(1H)-yl)pyridin-3-yl)pyrazolo[1,5-a]pyrimidine-3-carboxamide]	+++ (Compounds with a Cisplatin sensitization value of <0.02 μM are marked with “+++.”)
Nc1nn2cc(F)cnc2c1C(=O)Nc1cnccc1N1CCN2C(=O)COCC2C1 (stereo not shown) [I-N-136, 2-amino-6-fluoro-N-(4-(4-oxohexahydropyrazino[2,1-c][1,4]oxazin-8(1H)-yl)pyridin-3-yl)pyrazolo[1,5-a]pyrimidine-3-carboxamide]	++ (Compounds with a Cisplatin sensitization value >0.02 μM but <0.2 μM are marked with “++.”)
Cn1c(-c2ccncc2NC(=O)c2c(N)nn3cc(F)cnc23)cccc1=O [I-C-58, 2-amino-6-fluoro-N-(1-methyl-6-oxo-1,6-dihydro-[2,4′-bipyridin]-3′-yl)pyrazolo[1,5-a]pyrimidine-3-carboxamide]	+++ (Compounds with a Cisplatin sensitization value of <0.02 μM are marked with “+++.”)
CN1CCC[C@H]1C(=O)N1CCN(c2c(F)cncc2NC(=O)c2c(N)nn3cc(F)cnc23)CC1 [I-N-157, (S)-2-amino-6-fluoro-N-(5-fluoro-4-(4-(1-methylpyrrolidine-2-carbonyl)piperazin-1-yl)pyridin-3-yl)pyrazolo[1,5-a]pyrimidine-3-carboxamide]	++ (Compounds with a Cisplatin sensitization value >0.02 μM but <0.2 μM are marked with “++.”)
Nc1nn2cc(F)cnc2c1C(=O)Nc1cnccc1N1CCC(S(=O)(=O)C2COC2)CC1 [I-N-200, 2-amino-6-fluoro-N-(4-(4-(oxetan-3-ylsulfonyl)piperidin-1-yl)pyridin-3-yl)pyrazolo[1,5-a]pyrimidine-3-carboxamide]	+++ (Compounds with a Cisplatin sensitization value of <0.02 μM are marked with “+++.”)
CN(C)S(=O)(=O)C1CCN(c2c(F)cncc2NC(=O)c2c(N)nn3cc(F)cnc23)CC1 [I-N-146, 2-amino-N-(4-(4-(N,N-dimethylsulfamoyl)piperidin-1-yl)-5-fluoropyridin-3-yl)-6-fluoropyrazolo[1,5-a]pyrimidine-3-carboxamide]	+++ (Compounds with a Cisplatin sensitization value of <0.02 μM are marked with “+++.”)
Cc1ncc(-c2ccncc2NC(=O)c2c(N)nn3cc(F)cnc23)n1C [I-C-77, 2-amino-N-(4-(1,2-dimethyl-1H-imidazol-5-yl)pyridin-3-yl)-6-fluoropyrazolo[1,5-a]pyrimidine-3-carboxamide]	+++ (Compounds with a Cisplatin sensitization value of <0.02 μM are marked with “+++.”)
COCCN1CCN(c2c(F)cncc2NC(=O)c2c(N)nn3cc(F)cnc23)CC1 [I-N-127, 2-amino-6-fluoro-N-(5-fluoro-4-(4-(2-methoxyethyl)piperazin-1-yl)pyridin-3-yl)pyrazolo[1,5-a]pyrimidine-3-carboxamide]	+++ (Compounds with a Cisplatin sensitization value of <0.02 μM are marked with “+++.”)
Nc1nn2cc(F)cnc2c1C(=O)Nc1cnccc1-c1ccc(C(=O)N2CCC(N3CCC3)CC2)nc1 [I-C-54, 2-amino-N-(6-(4-(azetidin-1-yl)piperidine-1-carbonyl)-[3,4′-bipyridin]-3′-yl)-6-fluoropyrazolo[1,5-a]pyrimidine-3-carboxamide]	+++ (Compounds with a Cisplatin sensitization value of <0.02 μM are marked with “+++.”)
CN(C)CC(=O)N1CCN(c2c(F)cncc2NC(=O)c2c(N)nn3cc(F)cnc23)CC1 [I-N-153, 2-amino-N-(4-(4-(2-(dimethylamino)acetyl)piperazin-1-yl)-5-fluoropyridin-3-yl)-6-fluoropyrazolo[1,5-a]pyrimidine-3-carboxamide]	++ (Compounds with a Cisplatin sensitization value >0.02 μM but <0.2 μM are marked with “++.”)
Nc1nn2cc(F)cnc2c1C(=O)Nc1cncc(F)c1N1CCC(C(=O)N2CC3CNCC3C2)CC1 (stereo not shown) [I-G-51, 2-amino-6-fluoro-N-(5-fluoro-4-(4-(octahydropyrrolo[3,4-c]pyrrole-2-carbonyl)piperidin-1-yl)pyridin-3-yl)pyrazolo[1,5-a]pyrimidine-3-carboxamide]	+++ (Compounds with a Cisplatin sensitization value of <0.02 μM are marked with “+++.”)
Nc1nn2cc(F)cnc2c1C(=O)Nc1cnccc1-c1ccc(C(=O)N2CCNCC2)cc1 [I-C-44, 2-amino-6-fluoro-N-(4-(4-(piperazine-1-carbonyl)phenyl)pyridin-3-yl)pyrazolo[1,5-a]pyrimidine-3-carboxamide]	+++ (Compounds with a Cisplatin sensitization value of <0.02 μM are marked with “+++.”)
Nc1nn2cc(F)cnc2c1C(=O)Nc1cncc(F)c1N1CCN([C@H]2CCOC2)CC1 [I-N-125, (S)-2-amino-6-fluoro-N-(5-fluoro-4-(4-(tetrahydrofuran-3-yl)piperazin-1-yl)pyridin-3-yl)pyrazolo[1,5-a]pyrimidine-3-carboxamide]	+++ (Compounds with a Cisplatin sensitization value of <0.02 μM are marked with “+++.”)
C[C@H]1CN(C2COC2)CCN1c1ccncc1NC(=O)c1c(N)nn2cc(F)cnc12 [I-N-24, (S)-2-amino-6-fluoro-N-(4-(2-methyl-4-(oxetan-3-yl)piperazin-1-yl)pyridin-3-yl)pyrazolo[1,5-a]pyrimidine-3-carboxamide]	+++ (Compounds with a Cisplatin sensitization value of <0.02 μM are marked with “+++.”)
CN1CCCCC1C(=O)N1CCN(c2c(F)cncc2NC(=O)c2c(N)nn3cc(F)cnc23)CC1 (stereo not shown) [I-N-214, 2-amino-6-fluoro-N-(5-fluoro-4-(4-(1-methylpiperidine-2-carbonyl)piperazin-1-yl)pyridin-3-yl)pyrazolo[1,5-a]pyrimidine-3-carboxamide]	++ (Compounds with a Cisplatin sensitization value >0.02 μM but <0.2 μM are marked with “++.”)
CC1(O)CN(C(=O)C2CCN(c3c(F)cncc3NC(=O)c3c(N)nn4cc(F)cnc34)CC2)C1 [I-G-63, 2-amino-6-fluoro-N-(5-fluoro-4-(4-(3-hydroxy-3-methylazetidine-1-carbonyl)piperidin-1-yl)pyridin-3-yl)pyrazolo[1,5-a]pyrimidine-3-carboxamide]	+++ (Compounds with a Cisplatin sensitization value of <0.02 μM are marked with “+++.”)
Nc1nn2cc(F)cnc2c1C(=O)Nc1cncc(F)c1N1CC(=O)N2CCCC2C1 (stereo not shown) [I-N-232, 2-amino-6-fluoro-N-(5-fluoro-4-(4-oxohexahydropyrrolo[1,2-a]pyrazin-2(1H)-yl)pyridin-3-yl)pyrazolo[1,5-a]pyrimidine-3-carboxamide]	++ (Compounds with a Cisplatin sensitization value >0.02 μM but <0.2 μM are marked with “++.”)
Nc1nn2cc(F)cnc2c1C(=O)Nc1cncc(F)c1N1CCNCC1 [I-N-118, 2-amino-6-fluoro-N-(5-fluoro-4-(piperazin-1-yl)pyridin-3-yl)pyrazolo[1,5-a]pyrimidine-3-carboxamide]	+++ (Compounds with a Cisplatin sensitization value of <0.02 μM are marked with “+++.”)
Nc1nn2cc(Cl)cnc2c1C(=O)Nc1cnccc1N1CCC(N2CCC3(COC3)C2)CC1 [I-N-99, N-(4-(4-(2-oxa-6-azaspiro[3.4]octan-6-yl)piperidin-1-yl)pyridin-3-yl)-2-amino-6-chloropyrazolo[1,5-a]pyrimidine-3-carboxamide]	+++ (Compounds with a Cisplatin sensitization value of <0.02 μM are marked with “+++.”)
Nc1nn2cc(Cl)cnc2c1C(=O)Nc1cnccc1C1CCN(C2COC2)CC1 [I-C-11, 2-amino-6-chloro-N-(4-(1-(oxetan-3-yl)piperidin-4-yl)pyridin-3-yl)pyrazolo[1,5-a]pyrimidine-3-carboxamide]	+++ (Compounds with a Cisplatin sensitization value of <0.02 μM are marked with “+++.”)
Nc1nn2cc(F)cnc2c1C(=O)Nc1cncc(F)c1N1CCC(N2CCOCC2)CC1 [I-N-189, 2-amino-6-fluoro-N-(5-fluoro-4-(4-morpholinopiperidin-1-yl)pyridin-3-yl)pyrazolo[1,5-a]pyrimidine-3-carboxamide]	+++ (Compounds with a Cisplatin sensitization value of <0.02 μM are marked with “+++.”)
Nc1nn2cc(F)cnc2c1C(=O)Nc1cncc(F)c1N1CCN(C(=O)C2CCOC2)CC1 (stereo not shown) [I-N-274, 2-amino-6-fluoro-N-(5-fluoro-4-(4-(tetrahydrofuran-3-carbonyl)piperazin-1-yl)pyridin-3-yl)pyrazolo[1,5-a]pyrimidine-3-carboxamide]	+++ (Compounds with a Cisplatin sensitization value of <0.02 μM are marked with “+++.”)
CN(C)C(=O)C1CN(c2ccncc2NC(=O)c2c(N)nn3cc(F)cnc23)CCO1 (stereo not shown) [I-N-234, 4-(3-(2-amino-6-fluoropyrazolo[1,5-a]pyrimidine-3-carboxamido)pyridin-4-yl)-N,N-dimethylmorpholine-2-carboxamide]	+ (Compounds with a Cisplatin sensitization value >0.2 μM but <5 μM are marked with “+.”)
